Experimental data published in PubChem BioAssay (NCI).
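Each compound was tested at five concentrations against cells in 96-well plates for 48 hours. GI50: concentration for 50% inhibition of growth. TGI denotes the concentration required for complete inhibition of growth.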

Key:
Assay in all cases: DTP human tumour cell line panel, 48 h
SK-MEL-28 melanoma = test system: SK-MEL-28 melanoma
SN12C renal = test system: SN12C renal
ACHN renal = test system: ACHN renal
OVCAR-5 ovarian = test system: OVCAR-5 ovarian
NCI-H226 lung = test system: NCI-H226 lung
SF-295 CNS = test system: SF-295 CNS
SK-MEL-2 melanoma = test system: SK-MEL-2 melanoma
UACC-257 melanoma = test system: UACC-257 melanoma
IGROV1 ovarian = test system: IGROV1 ovarian
TK-10 renal = test system: TK-10 renal

Structure (SMILES)	TGI (SK-MEL-28 melanoma)	TGI (SN12C renal)	TGI (ACHN renal)	TGI (OVCAR-5 ovarian)	TGI (NCI-H226 lung)	TGI (SF-295 CNS)	TGI (SK-MEL-2 melanoma)	TGI (UACC-257 melanoma)	TGI (IGROV1 ovarian)	TGI (TK-10 renal)	GI50 (SN12C renal)	GI50 (ACHN renal)	GI50 (OVCAR-5 ovarian)	GI50 (SF-295 CNS)	GI50 (SK-MEL-28 melanoma)	GI50 (NCI-H226 lung)	GI50 (SK-MEL-2 melanoma)	GI50 (UACC-257 melanoma)	GI50 (IGROV1 ovarian)	GI50 (TK-10 renal)
CCN(CC)COC(=S)S	> 100 µM	> 100 µM	> 100 µM	> 100 µM	> 100 µM	> 100 µM	57 µM	> 76.3 µM	> 100 µM	> 100 µM	–	–	–	–	–	–	–	–	–	–
Cn1c2c3c(F)c(F)ccc3nc-2cc2ccccc21	18.3 µM	6.23 µM	4.68 µM	9.07 µM	13.4 µM	5.69 µM	14.1 µM	19.7 µM	15.9 µM	3.91 µM	–	–	–	–	–	–	–	–	–	–
CCN(CC)CCNc1ccc2nnn3c4ccccc4c(=O)c1c23	16 µM	33.4 µM	> 100 µM	14.4 µM	8.09 µM	15.3 µM	14 µM	22.3 µM	58.8 µM	22.9 µM	–	–	–	–	–	–	–	–	–	–
C[N+](C)([O-])Cc1cc(-c2ccccc2)ccc1O	> 100 µM	> 100 µM	> 100 µM	> 100 µM	> 100 µM	> 100 µM	> 100 µM	> 100 µM	> 100 µM	> 100 µM	–	–	–	–	–	–	–	–	–	–
O=c1nc2sc3ccc4ccccc4c3n2[nH]c1=O	> 100 µM	> 100 µM	–	–	> 100 µM	> 100 µM	–	–	> 100 µM	> 100 µM	–	–	–	–	–	–	–	–	–	–
COC(=O)c1cc(C)n(CN(Cc2ccccc2)Cn2nc(C(=O)OC)cc2C)n1	> 100 µM	> 100 µM	> 65.6 µM	> 100 µM	> 100 µM	> 100 µM	> 100 µM	> 100 µM	> 100 µM	> 100 µM	–	–	–	–	–	–	–	–	–	–
NC(=O)C(Nc1ccc(Cl)cc1)c1cc2cc(Br)ccc2nc1Cl (configuration not stated)	> 50 µM	> 50 µM	> 50 µM	> 50 µM	> 50 µM	> 50 µM	> 50 µM	> 50 µM	> 50 µM	47.7 µM	–	–	–	–	–	–	–	–	–	–
Cc1cc(C)n(CN(Cn2nc(C)cc2C)c2ccccc2)n1	34.7 µM	98.7 µM	51.5 µM	69.6 µM	–	> 100 µM	44.6 µM	61 µM	95.2 µM	> 100 µM	–	–	–	–	–	–	–	–	–	–
CCN(CC)CCNc1ccc(C)c2sc3ccccc3c(=O)c12	3.51 µM	12.2 µM	11.5 µM	9.59 µM	11.8 µM	5.66 µM	10.3 µM	3.18 µM	13.5 µM	11 µM	–	–	–	–	–	–	–	–	–	–
CC(=O)N/C(=C\c1ccc(/C=C(\NC(C)=O)C2=NC3C(=O)c4ccccc4C(=O)C3N2)cc1)C1=NC2C(=O)c3ccccc3C(=O)C2N1 (configuration not stated)	> 100 µM	> 100 µM	> 100 µM	> 100 µM	> 100 µM	> 100 µM	–	> 100 µM	> 100 µM	69.3 µM	–	–	–	–	–	–	–	–	–	–
CC1=CC(C)(C)Nc2ccc(CSc3ccccc3)cc21	> 100 µM	62.1 µM	> 100 µM	40.4 µM	> 100 µM	48.2 µM	52.2 µM	59.3 µM	> 100 µM	> 100 µM	–	–	–	–	–	–	–	–	–	–
O=C1C(Cl)C(c2cc3cc(Br)ccc3nc2Cl)N1c1c(Cl)cccc1Cl (configuration not stated)	> 25 µM	> 25 µM	> 25 µM	> 25 µM	> 25 µM	> 25 µM	> 25 µM	> 25 µM	> 25 µM	> 25 µM	–	–	–	–	–	–	–	–	–	–
CC[C@@H](/C=C\CCC1(C[C@@H](N)CCC=C(C)C)OCCO1)O[Si](C(C)C)(C(C)C)C(C)C	38.4 µM	31.6 µM	32 µM	31.1 µM	34.2 µM	37.4 µM	31.7 µM	36.6 µM	30.6 µM	31.2 µM	–	–	–	–	–	–	–	–	–	–
O=C(O)c1nccnc1C(=O)O	> 100 µM	> 100 µM	–	> 100 µM	> 100 µM	> 100 µM	> 100 µM	> 100 µM	> 100 µM	> 100 µM	–	–	–	–	–	–	–	–	–	–
O=[As](O)(O)c1ccc2nc3cc([As](=O)(O)O)ccc3nc2c1	> 100 µM	> 100 µM	> 100 µM	> 100 µM	> 100 µM	> 100 µM	> 100 µM	> 100 µM	> 100 µM	> 100 µM	–	–	–	–	–	–	–	–	–	–
CCCCCCCCCCCCCCCC(=O)OC1C(O)C(CO)OC(OC)C1NC(=O)N(CCCl)N=O (configuration not stated)	27.5 µM	–	21.9 µM	30.4 µM	33.7 µM	24 µM	44.3 µM	31.5 µM	38.3 µM	28.9 µM	–	–	–	–	–	–	–	–	–	–
C=CCc1cccc(/C=N\N=C(/N)NO)c1O	> 100 µM	33.5 µM	–	64.3 µM	11.5 µM	7.09 µM	> 54.4 µM	30.6 µM	> 74.9 µM	–	–	–	–	–	–	–	–	–	–	–
CN(C)C(=O)C1CCN(Cc2c[nH]c3ccccc23)CC1	> 100 µM	> 100 µM	> 100 µM	> 100 µM	> 100 µM	> 100 µM	> 100 µM	> 100 µM	> 100 µM	> 100 µM	–	–	–	–	–	–	–	–	–	–
Nc1ccccc1N=Nc1c(S(=O)(=O)O)cc2cc(S(=O)(=O)O)cc(O)c2c1O	> 100 µM	> 100 µM	> 100 µM	> 100 µM	> 100 µM	> 100 µM	–	> 100 µM	> 100 µM	> 100 µM	–	–	–	–	–	–	–	–	–	–
O=C(/C=C/c1ccc(O)c(O)c1)NCCc1ccc(-c2ccccc2)cc1	> 100 µM	–	–	> 100 µM	–	> 100 µM	> 100 µM	> 100 µM	–	63.3 µM	–	–	–	–	–	–	–	–	–	–
CCOC(=O)NC(Nc1ccc(Cl)cn1)(C(F)(F)F)C(F)(F)F	> 100 µM	–	> 100 µM	> 100 µM	> 100 µM	–	> 100 µM	> 100 µM	–	> 100 µM	–	–	–	–	–	–	–	–	–	–
CC(C)CN(CC#N)CC(C)C	> 100 µM	> 100 µM	> 100 µM	> 100 µM	> 100 µM	> 100 µM	–	> 100 µM	> 100 µM	> 100 µM	–	–	–	–	–	–	–	–	–	–
Cc1c2c(ccc3ccccc32)c[n+]2ccccc12	31.1 µM	–	> 100 µM	> 100 µM	35.1 µM	22.5 µM	33.7 µM	26.5 µM	–	> 100 µM	–	–	–	–	–	–	–	–	–	–
Cn1c(-c2ccc(N=NNc3ccc(-c4n[nH]c(=S)n4C)cc3)cc2)n[nH]c1=S	> 100 µM	> 100 µM	3.93 µM	> 100 µM	48.8 µM	> 100 µM	> 100 µM	> 100 µM	46.4 µM	> 100 µM	–	–	–	–	–	–	–	–	–	–
Cc1ccc(-c2cc(-c3c(C)nn(C)c(=O)c3N)[nH]n2)cc1	> 100 µM	> 100 µM	> 100 µM	> 100 µM	> 100 µM	> 100 µM	> 100 µM	> 100 µM	> 100 µM	> 100 µM	–	–	–	–	–	–	–	–	–	–
Cc1ccc(C2CC(c3cccc(Nc4ccncc4)c3)=NN2c2ccccc2)cc1 (configuration not stated)	–	3.19 µM	3.05 µM	3.19 µM	–	3.17 µM	–	–	–	–	1.69 µM	1.69 µM	1.68 µM	1.76 µM	–	–	–	–	–	–
[O-][n+]1c(-c2ccccc2)c2nc3ccccc3nc2c2ccccc21	> 100 µM	> 100 µM	> 100 µM	> 100 µM	> 100 µM	> 100 µM	> 100 µM	> 100 µM	> 100 µM	> 100 µM	–	–	–	–	–	–	–	–	–	–
O=C(O)Cn1c2c(c3c(O)cccc31)C(=O)c1ccccc1-2	> 100 µM	> 100 µM	> 100 µM	> 100 µM	> 100 µM	> 100 µM	> 100 µM	> 100 µM	> 100 µM	> 100 µM	> 100 µM	> 100 µM	> 100 µM	> 100 µM	> 100 µM	> 100 µM	> 100 µM	> 100 µM	> 100 µM	> 100 µM
